{"source": "patent US20070191337A1", "about": "“Annellated carbamyl-aza-heterocyclic compounds, a focused library, pharmaceutical compositions, and methods of preparing the same” (priority 2004, published 2007)", "assay_in_all_cases": "Anticancer activity: growth inhibition in tissue culture (Alamar Blue)", "format_in_all_cases": "cell-based", "key": {"[1]": {"tested_on": "DLD-1 (adenocarcinoma of the rectum)", "conditions": "DLD-1 cells, 30 μM, 48 hours, Alamar Blue fluorescence; result in words", "method": "(§1) A focused library was compiled to include compounds of general formula 1, as shown in Tables 1.01 to 1.23, and tested for anticancer activity. Anticancer activity of the compounds was measured by their capacity to kill cancerous cells in a tissue culture. Three cell lines representing three types of cancerous tumors were chosen, in particular: DLD-1 (adenocarcinoma of the rectum), DU-145 ([…]), and T-47D (tumor of the mammary gland). All the cell cultures were received from the American Tissue Culture Collection (ATCC). The efficiency of the compounds was assessed by measuring the number of […] cells following treatment with the test compounds over 48 hours. The cells were seeded at a concentration of 5*10^3 cells per hole of a standard 96-hole plate and left overnight for cells to be attached to the hole bottom. Whereupon the test compounds were added to the cells at an ultimate concentration of 30 μM, and the plates were left for 48 hours in an incubator at 37° C. maintaining the 5% CO2/95% air atmosphere at 100% humidity. At the end of the experiment, the medium with the compounds was sucked out of all the holes, and the holes were rinsed twice with physiological solution. […] of Alamar Blue solution was added to each hole, and fluorescence (λex=531 nm, λem=589 nm) was measured immediately after addition and 2 hours thereafter. The rate of fluorescence growth was proportional to the number of cells that survived incubation with the test compounds [John O'Brien, Ian Wilson, Terry Orton and Francois Pognan, “Investigation of the Alamar Blue (resazurin) Fluorescent Dye for the Assessment of Mammalian Cell Cytotoxicity.” Eur. J. Biochem. 2000,b 267, 5421-5426]. The proportion of cell growth suppression was found from the following equation: % of growth inhibition=((ΔΦk−ΔΦi)/ΔΦk)*100%, wherein: ΔΦ means increase in fluorescence over […] following addition of the Alamar Blue solution, and the subscripts […] and i mean, respectively, control cells (grown without any compounds added) and experimental cells (grown in the presence of test compounds)."}, "[2]": {"tested_on": "DU-145 (carcinoma of the brain)", "conditions": "DU-145 cells, 30 μM, 48 hours, Alamar Blue fluorescence; result in words", "method": "as §1"}, "[3]": {"tested_on": "T-47D (tumor of the mammary gland)", "conditions": "T-47D cells, 30 μM, 48 hours, Alamar Blue fluorescence; result in words", "method": "as §1"}}, "data": [{"smiles": "CCc1ccc(-c2cc3n(n2)CC(C)(C(=O)NC2CCCCC2)N(CCN2CCCC2)C3=O)cc1", "note": "(stereo not drawn) [1.5(3){50}, cyclohexylamide of 6-methyl-4-oxo-5-(2-pyrrolidin-1-yl-ethyl)-2-(4-ethylphenyl)-4,5,6,7-tetrahydropyrazolo[1,5-a]pyrazine-6-carbonic acid]", "values": [{"measurement": "suppression of tumor cell growth (% of growth inhibition)", "setting": "[1]", "result": "equally good at suppressing cell growth in all three cancer tumors"}, {"measurement": "suppression of tumor cell growth (% of growth inhibition)", "setting": "[2]", "result": "equally good at suppressing cell growth in all three cancer tumors"}, {"measurement": "suppression of tumor cell growth (% of growth inhibition)", "setting": "[3]", "result": "equally good at suppressing cell growth in all three cancer tumors"}]}]}
